In patent US8846698B2, “Pyrrolo[2,3-d]pyrimidine tropomysin-related kinase inhibitors” (Pfizer Limited, priority 2011, dated 2014):

target: TRKA (Homo sapiens (Human), UniProt P04629); test: Isolated TRK enzyme assay (HTRF KinEASE-TK), TRKA; format: biochemical; settings: read-out: Trka enzyme (IC50)
Sequence (P04629 441-796): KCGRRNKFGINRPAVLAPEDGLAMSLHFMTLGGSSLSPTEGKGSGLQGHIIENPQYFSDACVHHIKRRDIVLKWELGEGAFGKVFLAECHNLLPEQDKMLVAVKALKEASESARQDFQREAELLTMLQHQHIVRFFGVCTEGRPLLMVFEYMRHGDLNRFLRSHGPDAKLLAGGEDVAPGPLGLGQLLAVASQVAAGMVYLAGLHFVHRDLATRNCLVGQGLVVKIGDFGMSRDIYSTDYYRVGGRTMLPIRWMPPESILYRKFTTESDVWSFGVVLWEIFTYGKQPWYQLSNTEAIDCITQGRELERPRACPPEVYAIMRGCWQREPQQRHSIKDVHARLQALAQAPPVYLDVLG

SMILES	IC50
CC(C(=O)N(C)C)n1cc(C(=O)c2cncc(NC(=O)Cc3ccc(Cl)cc3)c2)c2cncnc21 (racemic) [Example 230, 2-{5-[(5-{[(4-Chlorophenyl)acetyl]amino}pyridin-3-yl)carbonyl]-7H-pyrrolo[2,3-d]pyrimidin-7-yl}-N,N-dimethylpropanamide]	0.0637 µM
CC(CO)n1cc(C(=O)c2cncc(NC(=O)Cc3ccc4cccnc4c3)c2)c2cnc(N)nc21 (single isomer, unassigned) [Example 211, N-(5-{[2-amino-7-(2-hydroxy-1-methylethyl)-7H-pyrrolo[2,3-d]pyrimidin-5-yl]carbonyl}pyridin-3-yl)-2-quinolin-7-ylacetamide]	0.0349 µM
CC(CO)n1cc(C(=O)c2cncc(NC(=O)Cc3ccc(C#N)cc3)c2)c2cnc(N)nc21 (single isomer, unassigned) [Example 212, N-(5-{[2-amino-7-(2-hydroxy-1-methylethyl)-7H-pyrrolo[2,3-d]pyrimidin-5-yl]carbonyl}pyridin-3-yl)-2-(4-cyanophenyl)acetamide]	0.059 µM
CC(CO)n1cc(C(=O)c2cncc(NC(=O)Cc3cccc(C(F)(F)F)c3)c2)c2cnc(N)nc21 (single isomer, unassigned) [Example 213, N-(5-{[2-amino-7-(2-hydroxy-1-methylethyl)-7H-pyrrolo[2,3-d]pyrimidin-5-yl]carbonyl}pyridin-3-yl)-2-[3-(trifluoromethyl)phenyl]acetamide]	0.00303 µM
CC(CO)n1cc(C(=O)c2cncc(NC(=O)Cc3ccc(C#N)cc3)c2)c2cnc(N)nc21 (single isomer, unassigned) [Example 214, N-(5-{[2-amino-7-(2-hydroxy-1-methylethyl)-7H-pyrrolo[2,3-d]pyrimidin-5-yl]carbonyl}pyridin-3-yl)-2-(4-cyanophenyl)acetamide]	0.0659 µM
CC(CO)n1cc(C(=O)c2cncc(NC(=O)Cc3cccc(C(F)(F)F)c3)c2)c2cnc(N)nc21 (single isomer, unassigned) [Example 215, N-(5-{[2-amino-7-(2-hydroxy-1-methylethyl)-7H-pyrrolo[2,3-d]pyrimidin-5-yl]carbonyl}pyridin-3-yl)-2-[3-(trifluoromethyl)phenyl]acetamide]	0.0044 µM
CC(CO)n1cc(C(=O)c2cncc(NC(=O)Cc3ccc4cccnc4c3)c2)c2cnc(N)nc21 (single isomer, unassigned) [Example 216, N-(5-{[2-amino-7-(2-hydroxy-1-methylethyl)-7H-pyrrolo[2,3-d]pyrimidin-5-yl]carbonyl}pyridin-3-yl)-2-quinolin-7-ylacetamide]	0.0316 µM
CC(C)n1cc(C(=O)c2cncc(NC(=O)Cc3ccc(F)cc3)c2)c2cncnc21 [Example 65, 2-(4-fluorophenyl)-N-{5-[(7-isopropyl-7H-pyrrolo[2,3-d]pyrimidin-5-yl)carbonyl]pyridin-3-yl}acetamide]	0.0556 µM
CC(C)n1cc(C(=O)c2cncc(NC(=O)Cc3cccc(C(F)(F)F)c3)c2)c2cncnc21 [Example 66, N-{5-[(7-isopropyl-7H-pyrrolo[2,3-d]pyrimidin-5-yl)carbonyl]pyridin-3-yl}-2-[3-(trifluoromethyl)phenyl]acetamide]	0.00355 µM
CC(C)n1cc(C(=O)c2cncc(NC(=O)Cc3ccc(C(F)(F)F)cc3)c2)c2cncnc21 [Example 67, N-{5-[(7-isopropyl-7H-pyrrolo[2,3-d]pyrimidin-5-yl)carbonyl]pyridin-3-yl}-2-[4-(trifluoromethyl)phenyl]acetamide]	0.00415 µM
CC(C)n1cc(C(=O)c2cncc(NC(=O)Cc3ccc(Cl)c(Cl)c3)c2)c2cncnc21 [Example 68, 2-(3,4-dichlorophenyl)-N-{5-[(7-isopropyl-7H-pyrrolo[2,3-d]pyrimidin-5-yl)carbonyl]pyridin-3-yl}acetamide]	0.0121 µM
CC(C)n1cc(C(=O)c2cncc(NC(=O)Cc3ccc(Cl)cc3)c2)c2cncnc21 [Example 69, 2-(4-chlorophenyl)-N-{5-[(7-isopropyl-7H-pyrrolo[2,3-d]pyrimidin-5-yl)carbonyl]pyridin-3-yl}acetamide]	0.0109 µM
CC(C)n1cc(C(=O)c2cncc(NC(=O)Cc3ccccc3OC3CC3)c2)c2cncnc21 [Example 70, 2-[2-(cyclopropyloxy)phenyl]-N-{5-[(7-isopropyl-7H-pyrrolo[2,3-d]pyrimidin-5-yl)carbonyl]pyridin-3-yl}acetamide]	0.0228 µM
CC(C)n1cc(C(=O)c2cncc(NC(=O)Cc3ccc(C#N)c(C(F)(F)F)c3)c2)c2cncnc21 [Example 72, 2-[4-cyano-3-(trifluoromethyl)phenyl]-N-{5-[(7-isopropyl-7H-pyrrolo[2,3-d]pyrimidin-5-yl)carbonyl]pyridin-3-yl}acetamide]	0.0633 µM
CC(C)n1cc(C(=O)c2cncc(NC(=O)Cc3ccc(OC4CC4)cc3)c2)c2cncnc21 [Example 73, 2-[4-(cyclopropyloxy)phenyl]-N-{5-[(7-isopropyl-7H-pyrrolo[2,3-d]pyrimidin-5-yl)carbonyl]pyridin-3-yl}acetamide]	0.283 µM
CC(C)n1cc(C(=O)c2cncc(NC(=O)Cc3cccc(OC4CC4)c3)c2)c2cncnc21 [Example 74, 2-[3-(cyclopropyloxy)phenyl]-N-{5-[(7-isopropyl-7H-pyrrolo[2,3-d]pyrimidin-5-yl)carbonyl]pyridin-3-yl}acetamide]	1.21 µM

SMILES	IC50
CC(C)n1cc(C(=O)c2cncc(NC(=O)Cc3cccc(CO)c3)c2)c2cncnc21 [Example 75, 2-[3-(hydroxymethyl)phenyl]-N-{5-[(7-isopropyl-7H-pyrrolo[2,3-d]pyrimidin-5-yl)carbonyl]pyridin-3-yl}acetamide]	0.567 µM
CC(C)n1cc(C(=O)c2cncc(NC(=O)Cc3ccc(C#N)c(F)c3)c2)c2cncnc21 [Example 76, 2-(4-cyano-3-fluorophenyl)-N-{5-[(7-isopropyl-7H-pyrrolo[2,3-d]pyrimidin-5-yl)carbonyl]pyridin-3-yl}acetamide]	0.173 µM
COc1cc(CC(=O)Nc2cncc(C(=O)c3cn(C(C)C)c4ncncc34)c2)ccc1C#N [Example 77, 2-(4-cyano-3-methoxyphenyl)-N-{5-[(7-isopropyl-7H-pyrrolo[2,3-d]pyrimidin-5-yl)carbonyl]pyridin-3-yl}acetamide]	0.0643 µM
CC(C)n1cc(C(=O)c2cncc(NC(=O)CN3Cc4ccc(F)cc4C3=O)c2)c2cncnc21 [Example 78, 2-(6-fluoro-1-oxo-1,3-dihydro-2H-isoindol-2-yl)-N-{5-[(7-isopropyl-7H-pyrrolo[2,3-d]pyrimidin-5-yl)carbonyl]pyridin-3-yl}acetamide]	0.203 µM
CC(C)n1cc(C(=O)c2cncc(NC(=O)Cn3ccc(-c4ccccn4)n3)c2)c2cncnc21 [Example 79, N-{5-[(7-isopropyl-7H-pyrrolo[2,3-d]pyrimidin-5-yl)carbonyl]pyridin-3-yl}-2-(3-pyridin-2-yl-1H-pyrazol-1-yl)acetamide]	1.58 µM
CC(C)n1cc(C(=O)c2cncc(NC(=O)Cc3ccc4[nH]cnc4c3)c2)c2cncnc21 [Example 80, 2-(1H-benzimidazol-5-yl)-N-{5-[(7-isopropyl-7H-pyrrolo[2,3-d]pyrimidin-5-yl)carbonyl]pyridin-3-yl}acetamide]	0.392 µM
CC(C)n1cc(C(=O)c2cncc(NC(=O)Cc3ccc4nccnc4c3)c2)c2cncnc21 [Example 81, N-{5-[(7-isopropyl-7H-pyrrolo[2,3-d]pyrimidin-5-yl)carbonyl]pyridin-3-yl}-2-quinoxalin-6-ylacetamide]	0.197 µM
CC(C)n1cc(C(=O)c2cncc(NC(=O)Cc3cnc4cccnc4c3)c2)c2cncnc21 [Example 82, N-{5-[(7-isopropyl-7H-pyrrolo[2,3-d]pyrimidin-5-yl)carbonyl]pyridin-3-yl}-2-(1,5-naphthyridin-3-yl)acetamide]	0.908 µM
CC(C)n1cc(C(=O)c2cncc(NC(=O)Cc3ccc4onc(N)c4c3)c2)c2cncnc21 [Example 83, 2-(3-amino-1,2-benzisoxazol-5-yl)-N-{5-[(7-isopropyl-7H-pyrrolo[2,3-d]pyrimidin-5-yl)carbonyl]pyridin-3-yl}acetamide]	0.355 µM
CC(C)n1cc(C(=O)c2cncc(NC(=O)Cc3ccc4[nH]c(C(F)(F)F)nc4c3)c2)c2cncnc21 [Example 84, N-{5-[(7-isopropyl-7H-pyrrolo[2,3-d]pyrimidin-5-yl)carbonyl]pyridin-3-yl}-2-[2-(trifluoromethyl)-1H-benzimidazol-5-yl]acetamide]	2.86 µM
CC(C)n1cc(C(=O)c2cncc(NC(=O)Cc3ccn4ccnc4c3)c2)c2cncnc21 [Example 85, 2-imidazo[1,2-a]pyridin-7-yl-N-{5-[(7-isopropyl-7H-pyrrolo[2,3-d]pyrimidin-5-yl)carbonyl]pyridin-3-yl}acetamide]	0.0708 µM
CC(C)n1cc(C(=O)c2cncc(NC(=O)Cn3ncc4ncccc43)c2)c2cncnc21 [Example 86, N-{5-[(7-isopropyl-7H-pyrrolo[2,3-d]pyrimidin-5-yl)carbonyl]pyridin-3-yl}-2-(1H-pyrazolo[4,3-b]pyridin-1-yl)acetamide]	0.0955 µM
CC(C)n1cc(C(=O)c2cncc(NC(=O)Cc3cccc(S(C)(=O)=O)c3)c2)c2cncnc21 [Example 87, N-{5-[(7-isopropyl-7H-pyrrolo[2,3-d]pyrimidin-5-yl)carbonyl]pyridin-3-yl}-2-[3-(methylsulfonyl)phenyl]acetamide]	0.0632 µM
CC(C)n1cc(C(=O)c2cncc(NC(=O)Cn3cc(C4CC4)nn3)c2)c2cncnc21 [Example 88, 2-(4-cyclopropyl-1H-1,2,3-triazol-1-yl)-N-{5-[(7-isopropyl-7H-pyrrolo[2,3-d]pyrimidin-5-yl)carbonyl]pyridin-3-yl}acetamide]	0.0566 µM
CC(C)n1cc(C(=O)c2cncc(NC(=O)Cc3ccc4ocnc4c3)c2)c2cncnc21 [Example 89, 2-(1,3-benzoxazol-5-yl)-N-{5-[(7-isopropyl-7H-pyrrolo[2,3-d]pyrimidin-5-yl)carbonyl]pyridin-3-yl}acetamide]	0.0217 µM
CC(C)n1cc(C(=O)c2cncc(NC(=O)Cn3ccc(C4CC4)n3)c2)c2cncnc21 [Example 90, 2-(3-cyclopropyl-1H-pyrazol-1-yl)-N-{5-[(7-isopropyl-7H-pyrrolo[2,3-d]pyrimidin-5-yl)carbonyl]pyridin-3-yl}acetamide]	0.00881 µM
